{"source": "patent US20260125357A1", "about": "“LACTATE ENHANCING COMPOUNDS AND USES THEREOF” (GLIAPHARM SA, priority 2022, published 2026)", "key": {"primary astrocytes": {"system": "primary astrocytes", "experiment": "Extracellular medium acidification (SNARF5) assay in astrocytes", "type": "cell-based", "settings": "Mus musculus, Astrocyte; astrocytes in vitro; compounds 10 nM to 30 μM; read-out: Activity (EC50 class, extracellular medium acidification SNARF5)", "procedure": "To assess for the effect of the compounds of the invention, those were tested in primary mouse astrocytes and astrocytes differentiated from human-derived induced pluripotent stem cells (iPSCs). Secretion of lactate was measured indirectly through the acidification of extracellular medium using extracellular pH sensor SNARE-5F-(AND-6)-CAR (SNARF5) as described below.\nPrimary cultures of cerebrocortical astrocytes were obtained from 1 to 2-day-old OF1 mouse pups (Charles River Laboratories). Briefly, cortices were isolated and minced in small pieces under a dissecting microscope. The cells were incubated for 30 min at 37° C. in a solution containing 20 U/ml papain, 1 mM L-cysteine and 10 kU/ml DNase I. After dissociation, papain activity was stopped by the addition of fetal calf serum (FCS). Single-cell suspension was then obtained by mechanical dissociation, which consisted in cells trituration in a DMEM D7777 medium supplemented with 44 mm NaHCO3, 10 ml/L antibiotic/antimycotic solution and 10% FCS. The cells were seeded at an average density of ˜10′000 cells/cm^2 on poly-D-lysine coated 96- or 12-well culture plates, depending on their use, and grown in DMEM D7777 medium supplemented with 44 mm NaHCO3, 10 ml/L antibiotic/antimycotic solution and 10% FCS at 37° C. in a humidified atmosphere containing 5% CO2/95% air. Culture medium was renewed twice a week. Cells were stimulated and harvested between DIV14 and DIV17, when confluence and cell growth were optimal.\nSecretion of lactate was measured indirectly through the acidification of extracellular medium using extracellular pH sensor SNARF-5F-(AND-6)-CAR (SNARF5). After washing cells twice with stimulation medium (DMEM (D5030, Sigma), 1 mM […], and 5 mM Glucose, pH 7.4) at 37° C., cells were stimulated with compounds at a final concentration ranging from 10 nM to 30 μM in 50 μl per well of stimulation medium supplemented with 10 μM of SNARF5 (Life Technologies Corporation). Each compound was tested in two different plates for duplicates. After 30, 60 and 90 min stimulation, fluorescence was read at exc. (excitation) 480 nm/emm. (emission) 580 nm and at exc 480 nm/emm. 630 nm. The ratio of fluorescence between 630 nm and 580 emission values, which is proportional to extracellular pH, was calculated. In each plate, 8 wells were used for negative controls (DMSO 0.1%) and 8 wells were used for positive controls (CCCP 2 μM in DMSO). Results are shown as % of positive control effect (0% and 100% being activities of the Veh and positive control, respectively)."}, "[1]": {"system": "human iPSC-derived astrocytes", "experiment": "Uptake of 2-DG in human iPSC-derived astrocytes", "type": "cell-based", "settings": "treated for 1.5 hours", "procedure": "Astrocytes grown on 12-well plates and transfected with either scramble siRNA or GLUT1 siRNA were used. 1 day after having replaced transfection medium (DIV13), 2DG uptake was measured after treatment for 30 min with Vehicle (0.1% DMSO) or with the compound of the invention (1) to (5) (concentrations of 0.1 to 10 μM). During treatment, 1 mM 2DG was added to the medium for assessment of 2DG uptake. At the end of the stimulation, medium was removed and replaced with 150 μl NaOH 0.1M, and stored at −20° C. After thawing, cells were collected using cell scraper and heated for 40 min at 85° C. Then, 150 ul HCl 0.1M and TAE buffer 200 mM was added to each condition. 20 μl were added to a transparent 96-well plate and 2DG was quantified by addition of a reaction solution containing 50 mM TAE, 50 mM KCl, 0.02% BSA, 0.1 mM NADP, 0.2 U/ml diaphorase, 2 mM resazurin and 20 U/ml glucose-6-phosphate dehydrogenase. Concentration of 2DG in samples were calculated by comparison with standard curve of deoxy-glucose-6-phophate ranging from 0 to 1 nmoles.\nHuman iPSC-derived astrocytes were purchased from NCardia (NCyte Astrocytes) and were plated at a density of ˜10′000 cells/cm^2 in 96-well or 12-well plates, according to the manufacturer's instructions and using the recommended media. […] Uptake of 2-DG and release of lactate were quantified as described previously."}, "[2]": {"system": "mice injected with streptozotocin", "experiment": "Morris Water Maze in streptozotocin ICV injection model of Alzheimer's disease", "type": "in vivo, mouse", "settings": "30 mg/kg, 1 Day after training, vs Veh", "procedure": "Craniotomies are performed on isoflurane-anesthetized mice for injections of Veh or streptozotocin in cerebral ventricles (coordinates: −0.5 mm (to bregma), lateral+/−1.0 mm (to midline), ventral −2.2 mm (to dura)) (Kelliny S. et al., Molecular Neurobiology, 2021). A solution composed of Veh (0.9% NaCl) or streptozotocin (5 mg/kg) prepared in 1 μl artificial cerebrospinal fluid solution (aCSF, 20 mM citrate buffer, pH 4.2) is injected in both cerebral ventricles using Hamilton micro syringe at a constant speed of 100-200 nl/min. After injection, skin of the skull is sutured, and mice is monitored closely and receives analgesic treatment for at least 4 days. After mice had fully recovered from surgery, memory tests including Morris Water Maze (MWM), Inhibitory Avoidance (IA) and Novel Object Recognition (NOR), as described below, are performed. […]\nMorris Water Maze (MWM), a well-established spatial and contextual memory test, will be used. […] A number of parameters including the latency to find the platform, time spent around the platform, path efficiency, % time spent in each quadrant is recorded, using automated tracking software (Ethovision). The type of exploration (direct, random, scan of the area) is also recorded. […]"}}, "data": [{"compound": "COc1cc2ccnc(Nc3ccc(S(C)(=O)=O)cc3)c2cc1OC", "note": "[Compound 2, 6,7-dimethoxy-N-(4-methylsulfonylphenyl)isoquinolin-1-amine]", "values": [{"measurement": "EC50", "setting": "primary astrocytes", "result": "< 1000", "unit": "nM"}, {"measurement": "uptake of 2-DG", "setting": "[1]", "result": "increased uptake of 2-DG"}, {"measurement": "memory in the Morris Water Maze", "setting": "[2]", "result": "significantly higher"}]}]}
